Test results as given in the NIST ThermoML archive (doi:10.1021/je400535t).

Experiment: molar heat capacity at constant pressure
Settings: 101.33 kPa, Crystal, Small (less than 1 g) adiabatic calorimetry

O=C([O][Sb]([O]C(=O)C12CC3CC(CC(C3)C1)C2)([c]1ccccc1)([c]1ccccc1)[c]1ccccc1)C12CC3CC(CC(C3)C1)C2
Settings	molar heat capacity at constant pressure [J/K/mol]
5 K	2.04
6.41 K	4.28
6.94 K	5
7.48 K	6.19
8.31 K	8.15
9.04 K	10
9.66 K	11.6
10 K	12.5
10.2 K	13.1
10.77 K	14.6
11.22 K	16
11.69 K	17.3
12.18 K	18.9
12.78 K	20.8
13.14 K	22
13.61 K	23.6
14.14 K	25.5
14.53 K	26.8
15 K	28.4
15.03 K	28.42
15.43 K	29.84
15.87 K	31.16
16.49 K	33.38
17.1 K	35.31
17.71 K	37.46
18.32 K	39.7
18.89 K	41.48
19.52 K	43.6
20 K	45.29
20.03 K	45.33
21.3 K	50
21.81 K	51.4
22.55 K	53.73
23.78 K	58.14
24.3 K	60.3
25 K	62.48
25.02 K	62.63
26.25 K	66.95
26.83 K	69
27.53 K	71.5
28.8 K	76.1
29.43 K	78.2
30 K	80.54
30.12 K	81.06
31.46 K	85.96
32.84 K	90.86
33.37 K	92.7
34.23 K	95.66
35 K	98.3
35.64 K	100.4
37.11 K	105.3
38.61 K	110.2
39.32 K	112.6
40 K	114.6
40.13 K	115
41.68 K	119.9
43.2 K	124.6
44.84 K	129.5
45 K	130
46.46 K	134.4
48.11 K	139.3
49.81 K	144.3
50 K	144.9
51.54 K	149.4
53.3 K	154.6
55.08 K	159.8
56.92 K	165
58.79 K	170.2
60 K	173.4
60.68 K	175.3
62.61 K	180.4
64.56 K	185.5
65.56 K	188.2
66.56 K	190.7
67.71 K	194
68.61 K	196.1
69.83 K	198.9
70 K	199.7
71.36 K	203.1
72.79 K	206.9
74.91 K	212.3
76.18 K	214.9
77.05 K	217.4
79.88 K	223.6
80 K	223.8
82.03 K	228.1
82.81 K	229.3
84.2 K	232.4
84.88 K	233.7
86.94 K	238
87.67 K	240.1
89 K	242.4
90 K	244.7
90.77 K	246
91.06 K	246.7
93.12 K	251.6
93.18 K	251.3
95.1 K	255.9
97.23 K	260.6
99.29 K	265.2
100 K	266.9
101.34 K	269.7
103.39 K	274.4
105.44 K	279.4
107.49 K	283.8
109.54 K	288
110 K	289.1
111.58 K	292.9
113.6 K	297.5
115.64 K	301.6
117.68 K	306.6
119.72 K	310.6
120 K	311.3
121.6 K	314.8
123.78 K	319.2
125.8 K	323.9
127.83 K	328.3
129.85 K	332.6
130 K	333.5
131.86 K	337.5
133.87 K	341.8
135.88 K	346.7
137.88 K	351.3
